According to patent publication US10774098B2, “Nahlsgen optical resolution method” (KYOTO UNIVERSITY, priority 2016, dated 2020):

Test system: normal human epidermal cells
Test: glutathione production promotion activity (glutathione reductase recycling assay)
Type: cell-based
Details: for GSH (pmol/μg protein) Mean: cultivation for 24 hours
Source text: The equal amount mixture obtained in Example 1 was used as a sample and evaluated for glutathione production promotion activity by the following procedure.
Specifically, normal human epidermal cells were inoculated to a 96-well microplate housing a normal human epidermic keratinocyte growth medium (trade name HuMedia KG2, supplied by Kurabo Industries Ltd.) in a cell density of 2.0×10^4 cells per 96 wells.
Twenty-four (24) hours after the inoculation, the medium was exchanged with a normal human epidermic keratinocyte growth medium (trade name HuMedia KB2, supplied by Kurabo Industries Ltd.) containing the sample in a predetermined concentration, and the cultivation was continued.
As a positive control, a cultivation was performed by a procedure similar to above, except for using, instead of the sample, Nahlsgen (DL-2-amino-4-[(RSp)-(3-carboxymethylphenoxy)(methoxy)phosphoryl]butanoic acid, trade name GGsTop, supplied by Wako Pure Chemical Industries, Ltd.).
As a blank, a cultivation was performed a procedure similar to above, except for not using the sample.
After cultivation for 24 hours, the cells were disrupted by ultrasonication using a phosphoric acid buffer containing 100-μM phenylmethylsulfonyl fluoride, and the total amount of glutathione was quantitatively measured by the after-mentioned glutathione reductase recycling assay.
Specifically, the disrupted cell suspension was combined with reduced nicotinamide adenine dinucleotide phosphate and glutathione reductase, followed by reaction at 37° C. for 10 minutes.
Next, 0.1 M phosphate buffer solution (containing 0.5 M EDTA, pH 7.5) containing 10 mM 5,5′-dithiobis(2-nitrobenzoic acid) was added, the absorbance (at 450 nm) was measured immediately after addition, and after 30 minute-incubation, and the difference between two measurements ((absorbance after 30 minute-incubation)−(absorbance immediately after addition)) was defined as an index for glutathione synthesis quantity.
The total amount of glutathione in the disrupted cell suspension was calculated on the basis of a calibration curve plotted using oxidized glutathione. The protein content in the disrupted cell suspension was quantitatively determined using the Pierce Microplate BCA Protein Assay Kit (Thermo SCIENTIFIC). The glutathione synthesis quantity was evaluated for differences from the untreated specimen (blank) and from the positive control by a significant difference test using Student's t-test.

Row | Compound | GSH (pmol/μg protein) Mean (Conc. 2.00 μmol/L) | GSH (pmol/μg protein) Mean (Conc. 10.00 μmol/L) | GSH (pmol/μg protein) Mean (Conc. 50.00 μmol/L) | GSH (pmol/μg protein) Mean (Conc. 250.00 μmol/L) | glutathione (GSH) amount compared with the blank (untreated cells) (result in words, summary of Table 1)
1 | equal-amount mixture of D-2-amino-4-[(Rp)-(3-carboxymethylphenoxy)(methoxy)phosphoryl]butanoic acid monohydrate and L-2-amino-4-[(Sp)-(3-carboxymethylphenoxy)(methoxy)phosphoryl]butanoic acid monohydrate [Example 1] | 44.2 pmol/μg protein | 48.1 pmol/μg protein | 38.0 pmol/μg protein | 41.5 pmol/μg protein | significantly increased glutathione (GSH) amount as well as or better than the cells treated with Nahlsgen
2 | COP(=O)(CC[C@H](N)C(=O)O)Oc1cccc(CC(=O)O)c1 (mixture of isomers) [Nahlsgen, DL-2-amino-4-[(RSp)-(3-carboxymethylphenoxy)(methoxy)phosphoryl]butanoic acid] |  | 44.7 pmol/μg protein |  |  | 
